Laboratory results as given in US12263156B2, “Use of small molecule inhibitors of the BfrB:Bfd interaction in biofilms” (priority 2020, dated 2025).

Legend:
[1] = system: EYFP-expressing P. aeruginosa PAO1 pellicle biofilms; assay: Determination of viable cells (CFU/mL) in pellicle biofilms; settings: for % survival relative to cells in the pre-treated biofilm / viable cell count as % of the cells in the untreated pellicle / % survival, combination treatment: 24 h; for viable cell count as % of the cells in the untreated pellicle: KM-5-25 40 μM, KM-5-66 20 μM; for relative compound activity (rank order): pellicles treated 24 h with 50 μM of each analog
Method: (§1) Pellicle biofilms of EYFP-expressing P. aeruginosa PAO1 or clinical isolates were grown in PI media supplemented with 20 μM Fe. Starter cultures were diluted to OD600=0.001 in 4 mL media, placed in 35×10 mm petri dishes and incubated statically at 30° C. for 48 hours. The pellicles were transferred onto circular (1.5 cm diameter) glass coverslips by gently allowing the surface of a coverslip to contact a pellicle. The pellicle-adhered coverslip was washed in PBS and then deposited on top of 1.5 mL of AB challenge media contained in a well of a 12-well microplate, with the pellicle exposed to the media. […] The coverslip-adhered pellicles were exposed to challenge media at 30° C. for 24 hours, changing the challenge media every 12 hours by transferring the pellicle-adhered coverslip to a new plate containing pre-warmed challenge media.
Pellicle biofilms were grown as described above. Planktonic and loosely attached cells were washed (3 times) by immersing the coverslip-adhered pellicles (biofilm facing up) into a well of a 12-well plate containing 3 mL of PBS, and incubating (5 min) with gentle rocking. To remove the pellicle from the coverslip, break the extracellular matrix and release cells from the biofilm, the coverslip-adhered pellicle was placed in a 50 mL conical tube containing a 2 mL suspension of zirconia beads (0.1 mm diameter, BioSpec Products), 10 mL PBS, 0.2 μg/mL alginate lyase and 0.2 μg/mL DNAse. The resultant mixture was incubated at room temperature for 3 min, followed by vigorous vortexing for 4 min. After sedimentation of the zirconia beads, a 100 μL aliquot was used for serial dilution and plating on PIA plates for subsequent enumeration of viable cells (CFU/mL).
To assess the efficacy of antibiotics and compounds with an approach complementary to imaging with CLSM, dispersing biofilm cells for subsequent enumeration of viable cells (CFU/mL) was resorted to. […] The biofilms were then harvested, and the cells dispersed into sterile PBS by vortexing in the presence of zirconia beads, prior to plating the cell suspensions for subsequent enumeration of CFU/mL. […] A characteristic of cells in the VBNC state is their inability to develop into colonies on routine culture media, even though the cells remain viable for long periods of time.^58-59 Evidence that bacterial cells can enter the VBNC has been obtained by several distinct methods,^59 one of which is the utilization of bacteria engineered to constitutively express bioluminescent proteins, and using the bioluminescence as a reporter of metabolic activity.

[2] = system: EYFP-expressing P. aeruginosa PAO1 pellicle biofilms; assay: Pellicle biofilm assay (CLSM imaging, COMSTAT biomass); assay type: cell-based, Pseudomonas aeruginosa; settings: 2-day old pellicles, 24 h; KM-5-25 80 μM, KM-5-66 50 μM (about 1.2× the IC50)
Method: as §1
Excess fluorescent dye was washed with PBS, the coverslip was mounted on a glass slide using 5 μL of SlowFade (Invitrogen, Carlsbad, CA) and the edges sealed with fingernail polish. CLSM image stacks (z-step size of 0.3 μm) were acquired with the aid of a Leica TCS SP8 microscope, as described above. Quantitative analysis was performed by determination of pellicle biomass using COMSTAT^54 and the Otsu method of automatic thresholding.^85
To expand the observations made with flow cell biofilms into a second biofilm model, the susceptibility of biofilms grown at the air-liquid interface (pellicles) was also studied.^56-57 Pellicle biofilms (henceforth pellicles) are an attractive alternative platform to study biofilms because pellicles are amenable to imaging by CLSM and to harvesting, which can be desirable for additional biofilm analysis.^26 To determine the susceptibility of pellicles to antibiotics or inhibitors of the BfrB-Bfd complex, 2-day old pellicles of EYFP-expressing P. aeruginosa cells were cultured in PI media supplemented with 20 μM Fe. The pellicles were transferred onto glass coverslips by allowing the surface of the coverslip to contact a pellicle.

[3] = 0.6× the IC50 (KM-5-25 40 μM; KM-5-66 30 μM)
[4] = 1.2× the IC50 (KM-5-25 80 μM; KM-5-66 50 μM)
[5] = analog at 1.2× the IC50 combined with colistin at 25× the MIC
[6] = analog at 1.2× the IC50 combined with colistin at 25× the MIC (20 μM)
[7] = analog at 1.2× the IC50 combined with colistin at 50× the MIC
[8] = analog at 1.2× the IC50 combined with colistin at 50× the MIC (40 μM)
[9] = analog at 1.2× the IC50 combined with tobramycin at 25× the MIC
[10] = analog at 1.2× the IC50 combined with tobramycin at 50× the MIC

Compound	% survival relative to cells in the pre-treated biofilm [1, 3]	% survival relative to cells in the pre-treated biofilm [1, 4]	viable cell count as % of the cells in the untreated pellicle [1]	log reduction of viable cells relative to colistin alone [1, 5]	% survival, combination treatment [1, 6]	log reduction of viable cells relative to colistin alone [1, 7]	% survival, combination treatment [1, 8]	log reduction of viable cells relative to tobramycin alone [1, 9]	% survival, combination treatment [1, 9]	log reduction of viable cells relative to tobramycin alone [1, 10]	% survival, combination treatment [1, 10]	relative compound activity (rank order) [1]	cells in the pellicle treated (killed), COMSTAT [2]	% survival relative to cells in the pre-treated biofilm ([1]; 0.3× the IC50 (KM-5-66 15 μM))
O=C1NC(=O)c2c(NCc3cc(Cl)ccc3O)cccc21 [KM-5-25]	~38%	~25%	42%	~1 log	~1%	~0.7 log	~0.5%	approximately 2.5 log	~0.5%	~4.7 log	~0.003%	KM-5-66>KM-5-25>16>11	~85%	
O=C1NC(=O)c2c(NCCCc3cc(O)cc(Cl)c3)cccc21 [KM-5-66]	~21%	~15%	37%	approximately 1.7 log	~0.3%	~1.9 log	~0.02%	approximately 1.5 log	5%	~2 log	1%	KM-5-66>KM-5-25>16>11	~85%	approximately 57%
